From patent publication US20240315952A1, “PERSONAL CARE COMPOSITION” (Conopco, Inc., d/b/a UNILEVER, priority 2020, published 2024)

Tested on: IL-1α
Assay: IL-1α expression in EpiKutis living skin equivalent (LSE) stressed with 1% SQOOH, human immunoassay kit
Type: cell-based
Conditions: levels are raw material wt %; for IL-1α level: EpiKutis 3D reconstructed human epidermis, sample applied topically, then 3 μL of 1% SQOOH, after 72 hours; for Inhibition: inhibition of IL-1α vs 1% SQOOH control, EpiKutis LSE, 72 hours
Procedure: EpiKutis® living skin equivalent (LSE), is a 3D reconstructed human epidermis model with Chinese human keratinocytes through air-liquid interface culture in a defined serum free medium, supplied by supplied by Biocell (Xi'an, China). Squalene monohydroperoxide (SQOOH), a stress surrogate, was prepared in house, by subjecting squalene to solar irradiation in the presence of a sensitizer.
The SQOOH was diluted using squalene. The moringa oil was dissolved in DMSO (dimethyl sulfoxide) at a concentration of 100 mM to form a stock solution. The samples in Table 1 were prepared accordingly by diluting the materials except moringa oil and/or stock solution with PBS (phosphate-buffered saline) to the desired levels as indicated in Table 1 before use for further experiment.
The sample was applied topically to the LSE followed by application of 3 μL of 1% SQOOH. The medium was then refreshed with interval of 24 hours. After 72 hours, the tissues were collected for histology and to test the extent of viability. The IL-1a expression was evaluated using a human immunoassay kit from R&D systems (Cat. DLA 50) and tested following the manufacturer's instructions.

| Compound | IL-1α level [pg/mL] | Inhibition [%] |
| --- | --- | --- |
| NC(=O)c1cccnc1 [Sample 5, Niacinamide] | 6.6 ± 0.63 | 25.33 |
| NC(=O)c1cccnc1 [Sample 6, Niacinamide] | 5.8 ± 0.60 | 33.57 |
